Laboratory results taken from US20230167073A1 (Teijin Pharma Limited, priority 2020, published 2023).

Molecular target: T1, Human TRPC6 (Homo sapiens, UniProt Q9Y210)
T1 construct: expressed in transfected cells
T1 sequence (Q9Y210 1-931): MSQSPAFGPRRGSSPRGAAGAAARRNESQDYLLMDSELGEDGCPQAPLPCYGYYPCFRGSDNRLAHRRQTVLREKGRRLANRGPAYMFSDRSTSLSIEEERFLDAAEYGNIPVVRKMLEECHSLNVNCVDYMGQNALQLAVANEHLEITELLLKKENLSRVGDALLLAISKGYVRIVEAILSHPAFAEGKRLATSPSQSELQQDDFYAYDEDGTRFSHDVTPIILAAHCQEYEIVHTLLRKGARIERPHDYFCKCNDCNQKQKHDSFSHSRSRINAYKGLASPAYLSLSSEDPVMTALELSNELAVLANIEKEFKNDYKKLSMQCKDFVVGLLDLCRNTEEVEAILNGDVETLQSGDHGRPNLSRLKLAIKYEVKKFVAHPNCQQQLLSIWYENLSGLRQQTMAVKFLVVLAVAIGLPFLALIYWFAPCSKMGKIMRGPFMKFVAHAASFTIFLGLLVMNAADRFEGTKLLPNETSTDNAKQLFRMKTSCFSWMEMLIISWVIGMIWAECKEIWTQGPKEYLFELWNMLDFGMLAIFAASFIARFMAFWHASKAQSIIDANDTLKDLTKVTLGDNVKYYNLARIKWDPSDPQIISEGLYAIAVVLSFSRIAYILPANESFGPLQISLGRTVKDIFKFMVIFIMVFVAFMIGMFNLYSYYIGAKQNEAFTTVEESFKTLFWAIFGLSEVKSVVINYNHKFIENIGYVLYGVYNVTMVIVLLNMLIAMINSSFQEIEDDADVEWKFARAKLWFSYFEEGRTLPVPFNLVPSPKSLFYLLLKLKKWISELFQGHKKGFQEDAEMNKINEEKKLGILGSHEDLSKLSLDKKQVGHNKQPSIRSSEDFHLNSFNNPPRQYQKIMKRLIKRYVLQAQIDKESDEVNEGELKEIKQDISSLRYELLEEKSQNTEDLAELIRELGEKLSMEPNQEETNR
Assay: Evaluation of TRPC6 channel inhibitory activity (1), FLIPR Calcium 5 Assay Kit, OAG stimulation (Compound Nos. 1-1293)
Assay type: cell-based
Details: Human TRPC6 stably-expressing cells, OAG 30 μM, FLIPR Calcium 5 Assay Kit; read-out: Inhibitory activity (pIC50 class) (converted)
Description: Evaluation of TRPC6 Channel Inhibitory Activity (1) (Compound Nos. 1-1293)
In order to investigate TRPC6 channel inhibitory activity of the compounds, evaluation was conducted using FLIPR® Calcium 5 Assay Kit (Molecular Devices) in accordance with the following procedure. Human TRPC6 stably-expressing cells were seeded in a 384-well black clear bottom plate at a density of 5×10^3/well and cultured in an incubator at 37° C. 5% CO2 for 24 hours. Thereafter, 25 μL of a Non Wash Dye Solution, prepared using Component A, 20 mM HEPES-HBSS and 250 mM probenecid, all of which are included in the kit, was added to each well, and the plate was incubated for 30 minutes. A volume of 12.5 μL of a compound solution was added into each well while the fluorescence was measured with FLIPR tetra. After 20 minutes, 12.5 μL of a 1-oleoyl-2-acetyl glycerol (OAG) solution was added at a final concentration of 30 μM. The difference between the minimum fluorescence intensity before the addition of the compound and the maximum fluorescence intensity after the addition of OAG was defined as a signal. An inhibition rate was calculated, assuming the average signal of wells without the compound as the inhibition rate of 0% and the average signal of wells without the compound and OAG as the inhibition rate of 100%. The calculated inhibition rate was analyzed by a four-parameter logistic regression to quantify the inhibition rate in the logarithm of the inverse of the effective concentration which gives a 50% inhibition rate (pIC50). The intensity was expressed by the following symbols (+, ++, +++).

IC50 [µM]	Compound
> 1	COCCCNCCc1ccc(-c2ccc(C#N)cc2Oc2cc(N3CCOCC3)nc(C)n2)cc1 [Compound 57, 4-[4-[2-(3-methoxypropylamino)ethyl]phenyl]-3-(2-methyl-6-morpholin-4-ylpyrimidin-4-yl)oxybenzonitrile]
< 0.01	Cc1nc(Oc2cc(C#N)ccc2-c2ccc(C(C)CN)cc2)cc(N2CCOCC2)n1 (centres unmarked) [Compound 62, 4-[4-(1-aminopropan-2-yl)phenyl]-3-(2-methyl-6-morpholin-4-ylpyrimidin-4-yl)oxybenzonitrile]
> 1	Cc1nc(Oc2cc(C#N)ccc2-c2ccc(C(CN)OCC(=O)O)cc2)cc(N2CCOCC2)n1 (centres unmarked) [Compound 63, 2-[2-amino-1-[4-[4-cyano-2-(2-methyl-6-morpholin-4-ylpyrimidin-4-yl)oxyphenyl]phenyl]ethoxy] acetic acid]
> 1	COCCOC(CN)c1ccc(-c2ccc(C#N)cc2Oc2cc(N3CCOCC3)nc(C)n2)cc1 (centres unmarked) [Compound 64, 4-[4-[2-amino-1-(2-methoxyethoxy)ethyl]phenyl]-3-(2-methyl-6-morpholin-4-ylpyrimidin-4-yl)oxybenzonitrile]
< 0.01	N#Cc1ccc(-c2ccc(CCN)cc2)c(Oc2cnnc(-c3ccccc3)c2)c1 [Compound 69, 4-[4-(2-aminoethyl)phenyl]-3-(6-phenylpyridazin-4-yl)oxybenzonitrile]
0.01 to 1	Cc1nc(Oc2cc(C#N)ccc2-c2ccc(C(CN)c3ccsc3)cc2)cc(N2CCOCC2)n1 (centres unmarked) [Compound 72, 4-[4-(2-amino-1-thiophen-3-ylethyl)phenyl]-3-(2-methyl-6-morpholin-4-ylpyrimidin-4-yl)oxybenzonitrile]
0.01 to 1	Cc1nc(Oc2cc(C#N)ccc2-c2ccc(C(CN)c3ccoc3)cc2)cc(N2CCOCC2)n1 (centres unmarked) [Compound 73, 4-[4-[2-amino-1-(furan-3-yl)ethyl]phenyl]-3-(2-methyl-6-morpholin-4-ylpyrimidin-4-yl)oxybenzonitrile]
> 1	N#Cc1ccc(-c2ccc(CCN)nc2)c(Oc2cc(Cl)cnn2)c1 [Compound 79, 4-[6-(2-aminoethyl)pyridin-3-yl]-3-(5-chloropyridazin-3-yl)oxybenzonitrile]
> 1	N#Cc1ccc(-c2ccc(C3(CN)CC3)cc2)c(Oc2cnnc(-c3ccccc3)c2)c1 [Compound 83, 4-[4-[1-(aminomethyl)cyclopropyl]phenyl]-3-(6-phenylpyridazin-4-yl)oxybenzonitrile]

Second part, the molecule before the results:

Compound	IC50 [µM]
Cc1nc(Oc2cc(C#N)ccc2-c2ccc(C3CN(CCC(=O)O)C3)cc2)cc(N2CCOCC2)n1 [Compound 55, 3-[3-[4-[4-cyano-2-(2-methyl-6-morpholin-4-ylpyrimidin-4-yl)oxyphenyl]phenyl]azetidin-1-yl]propanoic acid]	> 1
Cc1nc(Oc2cc(C#N)ccc2-c2ccc(CCNCCC(=O)O)cc2)cc(N2CCOCC2)n1 [Compound 56, 3-[2-[4-[4-cyano-2-(2-methyl-6-morpholin-4-ylpyrimidin-4-yl)oxyphenyl]phenyl]ethylamino] propanoic acid]	> 1
Cc1nc(Oc2cc(C#N)ccc2-c2ccc(CCNCCCO)cc2)cc(N2CCOCC2)n1 [Compound 58, 4-[4-[2-(3-Hydroxypropylamino)ethyl]phenyl]-3-(2-methyl-6-morpholin-4-ylpyrimidin-4-yl)oxybenzonitrile]	0.01 to 1
Cc1nc(Oc2cc(C#N)ccc2-c2ccc(C(CN)c3ccccc3)cc2)cc(N2CCOCC2)n1 (centres unmarked) [Compound 59, 4-[4-(2-Amino-1-phenylethyl)phenyl]-3-(2-methyl-6-morpholin-4-ylpyrimidin-4-yl)oxybenzonitrile]	0.01 to 1
Cc1nc(Oc2cc(C#N)ccc2-c2ccc(C(CN)c3ccc(F)cc3)cc2)cc(N2CCOCC2)n1 (centres unmarked) [Compound 60, 4-[4-[2-amino-1-(4-fluorophenyl)ethyl]phenyl]-3-(2-methyl-6-morpholin-4-ylpyrimidin-4-yl)oxybenzonitrile]	0.01 to 1
Cc1nc(Oc2cc(C#N)ccc2-c2ccc(C(CN)c3cccc(F)c3)cc2)cc(N2CCOCC2)n1 (centres unmarked) [Compound 61, 4-[4-[2-amino-1-(3-fluorophenyl)ethyl]phenyl]-3-(2-methyl-6-morpholin-4-ylpyrimidin-4-yl)oxybenzonitrile]	> 1
N#Cc1ccc(-c2ccc(CCN)cc2)c(Oc2cnnc(N3CCCC3)c2)c1 [Compound 65, 4-[4-(2-aminoethyl)phenyl]-3-(6-pyrrolidin-1-ylpyridazin-4-yl)oxybenzonitrile]	< 0.01
N#Cc1ccc(-c2ccc(CCN)cc2)c(Oc2cnnc(N3CCCCC3)c2)c1 [Compound 66, 4-[4-(2-aminoethyl)phenyl]-3-(6-piperidin-1-ylpyridazin-4-yl)oxybenzonitrile]	< 0.01
Cc1nc(Oc2cc(C#N)ccc2-c2ccc(C3(CN)CC3)cc2)cc(N2CCOCC2)n1 [Compound 67, 4-[4-[1-(aminomethyl)cyclopropyl]phenyl]-3-(2-methyl-6-morpholin-4-ylpyrimidin-4-yl)oxybenzonitrile]	0.01 to 1
Cc1nc(Oc2cc(C#N)ccc2-c2ccc(C(C)(O)CN)cc2)cc(N2CCOCC2)n1 (centres unmarked) [Compound 68, 4-[4-(1-amino-2-hydroxypropan-2-yl)phenyl]-3-(2-methyl-6-morpholin-4-ylpyrimidin-4-yl)oxybenzonitrile]	0.01 to 1
N#Cc1ccc(-c2ccc(CCN)cc2)c(Oc2cnnc(-c3ccccc3O)c2)c1 [Compound 70, 4-[4-(2-aminoethyl)phenyl]-3-[6-(2-hydroxyphenyl)pyridazin-4-yl]oxybenzonitrile]	< 0.01
Cc1nc(Oc2cc(C#N)ccc2-c2nc(C)c(C(O)CN)s2)cc(-c2ccccc2)n1 (centres unmarked) [Compound 71, 4-[5-(2-amino-1-hydroxyethyl)-4-methyl-1,3-thiazol-2-yl]-3-(2-methyl-6-phenylpyrimidin-4-yl)oxybenzonitrile]	0.01 to 1
Cc1nc(Oc2cc(C#N)ccc2-c2ccc(CCN)nc2)cc(N2CCOCC2)n1 [Compound 74, 4-[6-(2-aminoethyl)pyridin-3-yl]-3-(2-methyl-6-morpholin-4-ylpyrimidin-4-yl)oxybenzonitrile]	0.01 to 1
Cc1nc(Oc2cc(C#N)ccc2-c2ccc(CCN)nc2)cc(-c2ccccc2)n1 [Compound 75, 4-[6-(2-aminoethyl)pyridin-3-yl]-3-(2-methyl-6-phenylpyrimidin-4-yl)oxybenzonitrile]	0.01 to 1
N#Cc1ccc(-c2ccc(CCN)nc2)c(Oc2cnnc(Cl)c2)c1 [Compound 76, 4-[6-(2-aminoethyl)pyridin-3-yl]-3-(6-chloropyridazin-4-yl)oxybenzonitrile]	> 1
N#Cc1ccc(-c2ccc(CCN)nc2)c(Oc2cnnc(N3CCOCC3)c2)c1 [Compound 77, 4-[6-(2-aminoethyl)pyridin-3-yl]-3-(6-morpholin-4-ylpyridazin-4-yl)oxybenzonitrile]	> 1
N#Cc1ccc(-c2ccc(CCN)nc2)c(Oc2cnnc(N3CCCCC3)c2)c1 [Compound 78, 4-[6-(2-aminoethyl)pyridin-3-yl]-3-(6-piperidin-1-ylpyridazin-4-yl)oxybenzonitrile]	0.01 to 1
N#Cc1ccc(-c2ccc(CCN)nc2)c(Oc2cc(N3CCOCC3)cnn2)c1 [Compound 80, 4-[6-(2-aminoethyl)pyridin-3-yl]-3-(5-morpholin-4-ylpyridazin-3-yl)oxybenzonitrile]	> 1
N#Cc1ccc(-c2ccc(CCN)nc2)c(Oc2cc(N3CCCCC3)cnn2)c1 [Compound 81, 4-[6-(2-aminoethyl)pyridin-3-yl]-3-(5-piperidin-1-ylpyridazin-3-yl)oxybenzonitrile]	> 1
N#Cc1ccc(-c2ccc(C(O)CN)cc2)c(Oc2cnnc(-c3ccccc3)c2)c1 (centres unmarked) [Compound 82, 4-[4-(2-amino-1-hydroxyethyl)phenyl]-3-(6-phenylpyridazin-4-yl)oxybenzonitrile]	< 0.01
